The values that follow are results of earlier work, collected in patent US12485093B2, “Composition for use as an antiviral in the form of nasal drops and in nebulisers” (DERMOPARTNERS, S.L., priority 2021, dated 2025).

The subject of the data set is SARS-CoV-2. Conditions: concentration of 5% m/v.

As to `OC[C@@H](O)[C@H](O)[C@@H](O)CO` [xylitol], the “viricidal and antiviral activity on SARS-CoV-2” value is “viricidal and exhibit antiviral activity”.
